Where two headings read alike, the source gives them in different places.
How the values were obtained:
[1] = test system: K562 (human chronic myelogenous leukemia) cells; assay: Cell Titer Glo 2.0 cell viability assay; assay type: cell-based; conditions: Homo sapiens, K562, 72 h, K562 cells, 72 hours, Cell Titer Glo 2.0; read-out: K562 GI50
MYB mRNA = assay: RT-qPCR splicing assay, MYB canonical junction (CJ) and alternative junction (AJ) mRNA; assay type: cell-based, human; conditions: Homo sapiens; for AC50: increase in MYB alternative junction (AJ) mRNA, read-out: MYB AJ AC50
Procedure, shortened: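 Following a 24-hour incubation of A673 or K562 cells with serially diluted compound (3-fold steps, highest final 10 uM), the lysates undergo cDNA synthesis plus qPCR. Canonical and alternative junctions are each quantified against PPIA, GAPDH or GUSB.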

MYB = assay: HiBiT protein abundance assay, MYB HiBiT K562 cell line; assay type: cell-based, human; conditions: HiBiT K562 cell line, 24 hours, top dose 10 μM; read-out: Effect on protein abundance, MYB (IC50 category)
Procedure, shortened: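 Endogenous targets in K562 knock-in lines carried a HiBiT tag and were treated for 24 h at 37 °C with 10-point 3-fold dilutions (top 10 μM final, DMSO ≤0.25%). Abundance was read as lytic Nano-Glo HiBiT luminescence. IC50 came from a four-parameter logistic fit of normalized response.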

[2] = Table 5 panel, canonical junction qPCR, compound concentration having 50% response in CJ decrease, read-out: MYB IC50 (decrease in CJ mRNA levels)
[3] = decrease in MYB canonical junction (CJ) mRNA, RT-qPCR, read-out: MYB CJ IC50

Compound | GI50 [1] [nM] | IC50 (MYB mRNA; [2]) [nM] | IC50 (MYB mRNA; [3]) [nM] | AC50 (MYB mRNA; RT-qPCR) [nM] | IC50 (MYB) [nM]
Cc1cn2nc(-c3cc(O)c4c(=O)n(C5CCNC5)ccc4c3)cc(C)c2n1 (stereo not shown) [Compound 432, 6-{2,8-dimethylimidazo[1,2-b]pyridazin-6-yl}-8-hydroxy-2-(pyrrolidin-3-yl)isoquinolin-1-one] | 1000 to 10000 | < 100 | 100 to 1000 | < 100 | < 100
Cn1cc2cc(-n3cnc4cc(NC5CCNCC5)ccc4c3=O)ccc2n1 [Compound 162] |  | > 10000 | > 10000 | > 10000 | > 10000
Cc1cn2nc(-c3cc(F)c4c(=O)n(C5CCN(C)CC5)ccc4c3)cc(C)c2n1 [Compound 400, 6-(2,8-dimethylimidazo[1,2-b]pyridazin-6-yl)-8-fluoro-2-(1-methylpiperidin-4-yl)isoquinolin-1(2H)-one] | 100 to 1000 | < 100 | < 100 | < 100 | < 100
Cc1cn2nc(-c3cc(F)c4c(=O)n([C@@H]5CCNC6(CC6)C5)ccc4c3)cc(C)c2n1 (single isomer, unassigned) [Compound 425] | < 100 | < 100 | < 100 | < 100 | < 100
Cc1cc(-c2ccc3c(=O)n(C4CCNC5(COC5)C4)cnc3c2)cc2cn(C)nc12 (stereo not shown) [Compound 375] | 1000 to 10000 | 1000 to 10000 | 1000 to 10000 | 1000 to 10000 | 1000 to 10000
COc1cc(-c2cc(C)c3nc(C)cn3n2)cc2ccn(C3CCNCC3)c(=O)c12 [Compound 399, 6-{2,8-dimethylimidazo[1,2-b]pyridazin-6-yl}-8-methoxy-2-(piperidin-4-yl)isoquinolin-1-one] | 100 to 1000 | 100 to 1000 | 100 to 1000 | 100 to 1000 | 100 to 1000
Cc1cn2nc(-c3cc(F)c4c(=O)n([C@H]5CCNC6(CC6)C5)ccc4c3)cc(C)c2n1 (single isomer, unassigned) [Compound 426] | < 100 | < 100 | < 100 | < 100 | < 100
Cc1cn2nc(-c3ccc4c(=O)n([C@@H]5CCNC6(CC6)C5)ncc4c3)cc(C)c2n1 (stereo in doubt) [Compound 368, 2-[(7R)-4-azaspiro[2.5]octan-7-yl]-6-{2,8-dimethylimidazo[1,2-b]pyridazin-6-yl}phthalazin-1-one] | 100 to 1000 | 100 to 1000 | 100 to 1000 | 100 to 1000 | < 100
Cc1cn2nc(-c3ccc4c(=O)n(C5CCNCC5)cc(C)c4c3)cc(C)c2n1 [Compound 381, 6-{2,8-dimethylimidazo[1,2-b]pyridazin-6-yl}-4-methyl-2-(piperidin-4-yl)isoquinolin-1-one] | 100 to 1000 | < 100 | < 100 | < 100 | < 100
Cc1cn2nc(-c3cc(F)c4c(=O)n(C5CCNC6(CC6)C5)ccc4c3)cc(C)c2n1 (stereo not shown) [Compound 380, 6-(2,8-dimethylimidazo[1,2-b]pyridazin-6-yl)-8-fluoro-2-(4-azaspiro[2.5]octan-7-yl)isoquinolin-1(2H)-one] | 100 to 1000 | < 100 | < 100 | < 100 | < 100
Cc1cn2c(n1)CCC(c1ccc3c(=O)n(C4CCNCC4)ccc3c1)C2 (stereo not shown) [Compound 453, 6-{2-methyl-5H,6H,7H,8H-imidazo[1,2-a]pyridin-6-yl}-2-(piperidin-4-yl)isoquinolin-1-one] | > 10000 | > 10000 | > 10000 | > 10000 | > 10000
Cc1cn2nc(-c3ccc4c(=O)n([C@H]5CCNC6(CC6)C5)ncc4c3)cc(C)c2n1 [Compound 369, 2-[(7S)-4-azaspiro[2.5]octan-7-yl]-6-{2,8-dimethylimidazo[1,2-b]pyridazin-6-yl}phthalazin-1-one] | 1000 to 10000 | < 100 | < 100 | < 100 | 1000 to 10000
Cn1cc2cc(-c3cc(F)c4c(=O)n(C5CCNC6(CC6)C5)ccc4c3)cc(F)c2n1 (stereo not shown) [Compound 412] | < 100 | < 100 | < 100 | < 100 | < 100
